Test results as given in article PMC9583322, “Vicinal Diaryl-Substituted Isoxazole and Pyrazole Derivatives with In Vitro Growth Inhibitory and In Vivo Antitumor Activity” (ACS Omega, 2022).

Assays:
Huh7 = assay: SRB cytotoxicity assay; format: cell-based, human; settings: Homo sapiens, Huh-7, 72 h, 72 h treatment
Protocol: (§1) HepG2, FOCUS, Hep3B, Mahlavu, Huh7, Hep40, and PLC-PRF-5 hepatocellular carcinoma cells; MCF-7, MDA-MB-231, MDA-MB-468, SKBR3, and ZR-75 breast cancer cells; and normal-like epithelial MCF-10A breast cells were cultured in low-glucose Dulbecco’s modified Eagle’s medium (DMEM) (Biological Industries-BI) supplemented with 10% fetal bovine serum (FBS) (Gibco/Thermo Fisher Scientific), 2 mM L-Glutamine (Gibco/Thermo Fisher Scientific), 100 Units/mL Penicillin/Streptomycin, and 0.1 mM non-essential amino acid (Gibco/Thermo Fisher Scientific). SNU475 hepatocellular carcinoma cells were maintained in RPMI (Biological Industries-BI) supplemented with 10% fetal bovine serum (FBS) (Gibco/Thermo Fisher Scientific), L-Glutamine (Gibco/Thermo Fisher Scientific), and 100 Units/mL Penicillin/Streptomycin, while ZR-75 breast cancer cells were cultured RPMI (Biological Industries-BI) supplemented with 10% fetal bovine serum (FBS) (Gibco/Thermo Fisher Scientific), 1× sodium pyruvate, and %4.5 glucose. Normal-like MCF-10A breast cells were sustained in DMEM/HAM’S F12 (Hyclone) supplemented with 10% fetal bovine serum (FBS) (Gibco/Thermo Fisher Scientific), EGF (20 ng/mL), Hydrocortisone ([…]), cholera toxin (100 ng/mL), insulin (10 μg/mL), and 100 Units/mL Penicillin/Streptomycin. The cells were cultivated at 37 °C in a humidified incubator under 5% CO2.
(§2) Mahlavu, FOCUS, SNU475 (1000 cell/well in 150 μL/well); Huh7, MCF7 (2500 cell/well in 150 μL/well); HepG2, Hep3B, SKBR3 (3000 cell/well in 150 μL/well); PLC-PRF-5, Hep40 (5000 cell/well in 150 μL/well); MDA-MB-231, MDA-MB-468, MCF10A (6000 cell/well in 150 μL/well); and ZR-75 (7500 cell/well in 150 μL/well) were cultured in 96-well plates and were inoculated in an incubator for 24 hours. The compounds were dissolved in dimethyl sulfoxide (DMSO) (Sigma, St Louis, MO) as a 20 mM stock solution. The treatment of cells with the compounds was done in a concentration range starting from 40 to 2.5 μM. The compounds which were below 2.5 μM were tested in a concentration range from 2.5 to 0.15 μM. End of the 72h compound treatment, the cells were fixed using 10% (v/v) trichloroacetic acid (MERCK) for an hour and washed with ddH2O, and left for air-drying. The fixed plates were stained with 50 μL of sulforhodamine B (SRB) solution (Sigma) at RT for 10 min. To remove unbound SRB dye, acetic acid was used to wash cells three times and left for drying. The protein-bound SRB was solubilized with 10 mM Tris-base (Sigma) and their absorbance was measured with a 96-well plate reader at 515 nm wavelength (ELx800, Biotek). The IC50 values of compounds were calculated in comparison with control group DMSO. Data with R^2 values larger than 0.9 are considered significant.

Mahlavu = assay: SRB cytotoxicity assay; format: cell-based, human; settings: 72 h treatment
Protocol: as §1, §2

MCF7 = assay: SRB cytotoxicity assay; format: cell-based, human; settings: 72 h treatment
Protocol: as §1, §2

SMILES	IC50 (Huh7) [µM]	IC50 (Mahlavu; Homo sapiens, Mahlavu, 72 h) [µM]	IC50 (MCF7) [µM]	IC50 (MCF7; Homo sapiens, MCF7, 72 h) [µM]	melting point [°C]	IC50 (Mahlavu) [µM]
Cc1ccccc1COc1ccc(-c2onc(C)c2-c2ccc(Cl)cc2)cc1 [compound 60, 4-(4-Chlorophenyl)-3-methyl-5-(4-((2-methylbenzyl)oxy)phenyl)isoxazole]	3.8	9.4	19.6	~19	153.8 to 154.9	
Cc1ccccc1COc1ccc(-c2ccnn2-c2ccc(Cl)cc2)cn1 [compound 87, 5-(1-(4-Chlorophenyl)-1H-pyrazol-5-yl)-2-((2-methylbenzyl)oxy)pyridine]	> 20	> 20		> 20	126.5 to 127.8	
Cc1nc(-c2ccc(OCc3ccccc3C)cc2)c(-c2ccc(Cl)cc2)s1 [compound 75, 5-(4-Chlorophenyl)-2-methyl-4-(4-((2-methylbenzyl)oxy)phenyl)thiazole]	> 20	> 20		> 20	90.5 to 92.1	
Cc1ccccc1COc1ccc(-c2ccnn2-c2ccc(Cl)cc2)cc1F [compound 89, 1-(4-Chlorophenyl)-5-(3-fluoro-4-((2-methylbenzyl)oxy)phenyl)-1H-pyrazole]	> 20	> 20		> 20	95 to 95.4	
Cc1ccccc1COc1ccc(-c2ccnn2-c2ccc(Cl)cc2)nc1 [compound 86, 2-(1-(4-Chlorophenyl)-1H-pyrazol-5-yl)-5-((2-methylbenzyl)oxy)pyridine]	2	7.1	21.7	≥ 20	108.4 to 110.4	
Cc1ccc(COc2ccc(-c3noc(C)c3-c3ccc(Cl)cc3)cc2)c(C)c1 [compound 31, 4-(4-Chlorophenyl)-3-(4-((2,4-dimethylbenzyl)oxy)phenyl)-5-methylisoxazole]	10.8			> 20	119.7 to 122.1	
Cc1ccccc1CNc1ccc(-c2noc(C)c2-c2ccc(Cl)cc2)cc1 [compound 59, 4-(4-(4-Chlorophenyl)-5-methylisoxazol-3-yl)-N-(2-methylbenzyl)aniline]	4		> 20	≥ 20	134.9 to 137	
Cc1ccccc1COc1ccc(-n2nccc2-c2ccc(Cl)cc2)cc1 [compound 78, 5-(4-Chlorophenyl)-1-(4-((2-methylbenyl)oxy)phenyl)-1H-pyrazole]	> 20	> 20		> 20	145.2 to 146.4	
Cc1ccc(-c2c(-c3ccc(OCc4ccccc4C)cc3)noc2C)nc1 [compound 54, 5-Methyl-3-(4-((2-methylbenzyl)oxy)phenyl)-4-(5-methylpyridin-2-yl)isoxazole]	6.4			> 20	121.4 to 122.3	
Cc1onc(-c2ccc(OCc3ccccc3OC(F)(F)F)cc2)c1-c1ccc(Cl)cc1 [compound 13, 4-(4-Chlorophenyl)-5-methyl-3-(4-((2-(trifluoromethoxy)benzyl)oxy)phenyl)isoxazole]	16.3			> 20	85.8 to 86.7	
Cc1onc(-c2ccc(OCc3ccc(C#N)cc3)cc2)c1-c1ccc(Cl)cc1 [compound 27, 4-((4-(4-(4-Chlorophenyl)-5-methylisoxazol-3-yl)phenoxy)methyl)benzonitrile]	11.7			> 20	138.5 to 139.5	
Cc1ccccc1COc1ccc(-c2noc(C)c2-c2ccc(F)cc2)cc1 [compound 45, 5-Methyl-4-(4-fluorophenyl)-3-(4-((2-methylbenzyl)oxy)phenyl)isoxazole]	16.7			> 20	119 to 120.5	
Cc1onc(-c2ccc(OCc3ccc4ccccc4n3)cc2)c1-c1ccc(Cl)cc1 [compound 34, 4-(4-Chlorophenyl)-5-methyl-3-(4-(quinolin-2-ylmethoxy)phenyl)isoxazole]	9.1			> 20	164.7 to 165.8	
Cc1onc(-c2ccc(OCc3cccnc3)cc2)c1-c1ccc(Cl)cc1 [compound 32, 4-(4-Chlorophenyl)-5-methyl-3-(4-(pyridin-3-ylmethoxy)phenyl)isoxazole]	7.7			8.3	115.5 to 116.4	
COC(=O)c1cccc(COc2ccc(-c3noc(C)c3-c3ccc(Cl)cc3)cc2)c1 [compound 23, Methyl-3-((4-(4-(4-chlorophenyl)-5-methylisoxazol-3-yl)phenoxy)methyl)benzoate]	> 20			13	121.5 to 122.8	
Cc1ccccc1CNc1ccc(-c2ccnn2-c2ccc(Cl)cc2)cc1 [compound 92, 4-(1-(4-Chlorophenyl)-1H-pyrazol-5-yl)-N-(2-methylbenzyl)aniline]	3.6	4.5		> 20	141.5 to 142.8	
Cc1ccccc1COc1ccc(-c2oncc2-c2ccc(Cl)cc2)cc1 [compound 63, 4-(4-Chlorophenyl)-5-(4-((2-methylbenzyl)oxy)phenyl)isoxazole]	1.5	≥ 20	> 20	≥ 20	115.3 to 117.3	20.1
Cc1onc(-c2ccc(OCc3cccc(F)c3)cc2)c1-c1ccc(Cl)cc1 [compound 21, 4-(4-Chlorophenyl)-3-(4-((3-fluorobenzyl)oxy)phenyl)-5-methylisoxazole]	> 20			> 20	98.1 to 99.8	
Cc1ccccc1COc1ccc(-c2noc(C)c2-c2ccncc2)cc1 [compound 55, 5-Methyl-3-(4-((2-methylbenzyl)oxy)phenyl)-4-(pyridin-4-yl)isoxazole]	> 20			> 20	128.5 to 129.3	
Cc1onc(-c2ccc(OCc3cccc(C#N)c3)cc2)c1-c1ccc(Cl)cc1 [compound 22, 3-((4-(4-(4-Chlorophenyl)-5-methylisoxazol-3-yl)phenoxy)methyl)benzonitrile]	20.7			> 20	114.4 to 115.6	
Cc1cccc(COc2ccc(-c3noc(C)c3-c3ccc(Cl)cc3)cc2)c1C [compound 30, 4-(4-Chlorophenyl)-3-(4-((2,3-dimethylbenzyl)oxy)phenyl)-5-methylisoxazole]	15.3			> 20	167.2 to 168.5	
Cc1onc(-c2ccc(OCc3ccc(C(F)(F)F)o3)cc2)c1-c1ccc(Cl)cc1 [compound 42, 4-(4-Chlorophenyl)-5-methyl-3-(4-((5-(trifluoromethyl)furan-2-yl)methoxy)phenyl) isoxazole]	13.4			14	105.7 to 106.8	
Cc1ccccc1COc1ccc(-c2noc(C)c2-c2ccc(Cl)cc2)c(F)c1 [compound 56, 4-(4-Chlorophenyl)-3-(2-fluoro-4-((2-methylbenzyl)oxy)phenyl)-5-methylisoxazole]	2.25			9.53	96.1 to 98.3	
COc1ccc(-c2c(-c3ccc(OCc4ccccc4C)cc3)noc2C)cc1 [compound 46, 5-Methyl-4-(4-methoxyphenyl)-3-(4-((2-methylbenzyl)oxy)phenyl)isoxazole]	8.9			12.8	121.3 to 122.7	
Cc1ccccc1C(=O)Nc1ccc(-c2ccnn2-c2ccc(Cl)cc2)cc1 [compound 91, N-(4-(1-(4-Chlorophenyl)-1H-pyrazol-5-yl)phenyl)-2-methylbenzamide]	> 20	> 20		> 20	179.1 to 180	
Cc1onc(-c2ccc(OCc3ccccc3C#N)cc2)c1-c1ccc(Cl)cc1 [compound 17, 2-((4-(4-(4-Chlorophenyl)-5-methylisoxazol-3-yl)phenoxy)methyl)benzonitrile]	> 20			> 20	111.2 to 112.5	
